Test results from US20110245265A1, “CXCR4 ANTAGONISTS FOR KIDNEY INJURY” (GENZYME CORPORATION, priority 2008, published 2011).
Entries after “also recorded” stand apart in the source; their conditions may differ. Where two headings read alike, the source gives them in different places.

What was measured:
[1] = tested on: renal ischemia-reperfusion injury; assay: Renal function (creatinine, BUN) in rat model of renal ischemia-reperfusion injury; format: in vivo; conditions: for effect on creatinine: FIG. 7B; for renal function loss / acute kidney injury: P≦0.05; for plasma creatinine: not significant (P>0.05), FIG. 5B; for creatinine levels: FIG. 1B
Procedure: This example illustrates the effect of multiple dosing strategies of AMD3465 in an in vivo rat model of renal ischemia-reperfusion injury in which the renal artery and vein of both kidneys were clamped for 45 minutes followed by removal of the clamps and reperfusion with blood. […] Group 1 follows this dosing regimen as illustrated in FIG. 1A. FIGS. 1B and 1C show creatinine and BUN levels in mg/dL of Group 1 subjects compared to subjects following different dosing strategies shown in FIG. 1A using 10 mg/kg. Also shown in FIG. 1A—Group 2 was dosed at −15 min and +2 hrs and +4 hrs and Group 3 at time 0 and +2 hrs.
FIG. 5A diagrams the dosing regimen timeline for groups 1 and 2. FIGS. 5B, 5C and 5D show the creatine (serum or plasma) and blood urea nitrogen levels of the AMD treated groups, vehicle treated and normal subjects. Dosing was carried out with two 1 mg/kg administrations (Group 1) or 5 mg/kg in a single dose (Group 2). […] FIG. 5C and FIG. 5D illustrate individual data points of each rat for plasma creatinine and blood urea nitrogen, respectively.
FIG. 6A illustrates the dosing regimen.
FIG. 7A illustrates the dosing regimen. Group 1 was administered 0.01 mg/kg both 15 minutes before and 3 hours after ischemia; Group 2 was administered 0.1 mg/kg at 15 minutes before.

[2] = tested on: renal ischemia-reperfusion injury; assay: Kidney histology: injury score (hematoxylin/eosin) and TUNEL score after renal ischemia-reperfusion; format: in vivo, rat
Procedure: Rats were dosed as described for Group 1 rats in FIG. 1A. […] FIGS. 2C and 2D show graphs of the Injury and TUNEL score, respectively. Injury was evaluated by scoring hematoxylin and eosin stained kidney sections on a scale of 1 to 4 for proteinaceous cast formation, cell exfoliation, vascular congestion and loss of tubular architecture. TUNEL staining was carried out on kidney sections to identify apoptotic cells that were then quantified by Metamorph analysis.
(§1) Data for FIGS. 8A, 8B and 8C were generated as described for FIGS. 2C, 2D and 3C, respectively.

[3] = tested on: renal ischemia-reperfusion injury; assay: Microvascular permeability: rat IgG immunostaining of kidney and serum vWF ELISA after renal ischemia-reperfusion; format: in vivo
Source text: Leakage of plasma proteins and secretion of von Willebrand Factor (vWF) are two indicators of the loss of microvascular integrity. FIGS. 3A and 3B are images of kidney tissue harvested 24 hrs after renal ischemia-reperfusion from subjects treated with the vehicle and AMD3465, respectively; tissue sections were immunostained with an antibody that recognizes rat immunoglobulin (IgG) and immunoreactivity quantified by Metamorph analysis illustrated in FIG. 3C. […] Renal ischemia-reperfusion rats that received AMD3465 represent Group 1 rats in FIG. 1A.
as §1

myeloperoxidase activity = conditions: both regimens of FIG. 6A; FIG. 8D
Source text: as §1

white blood cells = conditions: normal rats; single dose 1 mg/kg at time 0 versus 0.1 mg/kg twice (time 0 and 3 hrs later); FIG. 9
[4] = rat, in vivo
Procedure: FIG. 4A provides body weight data of subjects administered vehicle, and subjects in Group 1 and Group 2 (Groups described in FIG. 1A). […] FIG. 4B gives white blood cell (WBC) counts at 24 hours of Group 1 and 2 subjects, subjects administered vehicle and normal subjects administered AMD3465.

[5] = tested on: IL-6/IL-10 mRNA expression; conditions: Group 1 dosing

## c1cc(CN2CCCNCCNCCCNCC2)ccc1CN1CCCNCCNCCCNCC1 [AMD3100, 1,1′-[1,4-phenylene-bis(methylene)]-bis-1,4,8,11-tetraazacyclotetradecane]
[1]; 0.01 mg/kg both 15 minutes before and 3 hours after ischemia (Group 1, FIG. 7A)
  effect on creatinine: less positive results
[1]; 0.1 mg/kg 15 minutes prior to ischemia and 3 hrs later (Group 1, FIG. 6A)
  renal function loss / acute kidney injury: therapeutically effective
[1]; 0.1 mg/kg at 15 minutes before ischemia (Group 2, FIG. 7A)
  effect on creatinine: comparable to that shown in FIG. 6B
[1]; 1 mg/kg only at 15 minutes prior to ischemia (Group 2, FIG. 6A)
  renal function loss / acute kidney injury: therapeutically effective
[1]; FIG. 5C, dosing of FIG. 5A
  rats that demonstrated lower plasma creatinine (individual data points): five
[1]; regimens of FIG. 6A (0.1 mg/kg twice or 1 mg/kg once), FIG. 6B
  plasma creatinine levels: reduction
[1]; regimens of FIG. 6A (0.1 mg/kg twice or 1 mg/kg once), FIG. 6C
  BUN levels: reduction
[1]; regimens of FIG. 7A (0.01 mg/kg twice or 0.1 mg/kg once), FIG. 7C compared with FIG. 6C
  plasma BUN: only slightly less effective
[1]; single dose of 5 mg/kg (Group 2, FIG. 5A)
  plasma creatinine: decrease
[1]; two doses of 1 mg/kg (Group 1, FIG. 5A)
  plasma creatinine: decrease
[2]; regimen of FIG. 6A (0.1 mg/kg twice or 1.0 mg/kg once), FIG. 8B
  TUNEL score: significant effect
[2]; regimen of FIG. 6A (0.1 mg/kg twice or 1.0 mg/kg once), compared to vehicle, FIG. 8A
  injury score: lowered significantly
[3]; regimen of FIG. 6A (0.1 mg/kg twice or 1.0 mg/kg once), FIG. 8C
  luminal IgG score: significant effect
Myeloperoxidase activity
  myeloperoxidase activity, a measure of neutrophilic infiltration into the kidney tissue: lowered myeloperoxidase activity
White blood cells
  mobilization of white blood cells: Comparable results

## c1ccc(CNCc2ccc(CN3CCCNCCNCCCNCC3)cc2)nc1 [AMD3465, N-[1,4,8,11-tetraazacyclotetradecanyl-1,4-phenylene-bis-(methylene)]-2-aminomethyl-pyridine]
[1]; 10 mg/kg 15 min prior to ischemia and 2 hrs later (Group 1), 24 hrs after reperfusion
  loss of renal function based on levels of serum creatine and serum blood urea nitrogen (BUN): ameliorated the loss of renal function
[1]; Group 1: 10 mg/kg at -15 min and +2 hrs, 24 hrs after reperfusion, P<0.05
  creatinine levels: closest to normal
[1]; Group 1: 10 mg/kg at -15 min and +2 hrs, 24 hrs after reperfusion, FIG. 1C, P<0.05
  BUN levels: closest to normal
[1]; Group 2: 10 mg/kg at -15 min, +2 hrs and +4 hrs, 24 hrs after reperfusion
  creatinine levels: closest to normal
[1]; Group 2: 10 mg/kg at -15 min, +2 hrs and +4 hrs, 24 hrs after reperfusion, FIG. 1C
  BUN levels: closest to normal
[2]; Group 1 dosing (10 mg/kg -15 min, +2 hrs), 24 hr post-reperfusion, vs vehicle, 10 mg/kg
  structural integrity of the kidney: maintained structural integrity; also recorded: remained intact
[2]; Group 1 dosing (10 mg/kg -15 min, +2 hrs), 24 hr post-reperfusion, vs vehicle, FIG. 2C, 10 mg/kg
  renal injury (Injury score): decreasing renal injury; also recorded: significantly reduced
[2]; Group 1 dosing (10 mg/kg -15 min, +2 hrs), 24 hr post-reperfusion, vs vehicle, FIG. 2D, 10 mg/kg
  cell death (TUNEL score): decreasing; also recorded: significantly reduced
[3]; Group 1 dosing, kidney harvested 24 hrs after renal ischemia-reperfusion, vs vehicle, FIG. 3C
  frequency of serum proteins measured by rat IgG in the renal tubular lumen: less
[3]; Group 1 dosing, vs vehicle, FIG. 3D
  circulating levels of the cleaved form of von Willebrand factor (serum, ELISA): lower
[4]
  body weight: lost less body weight
  tolerability: well tolerated
  white blood cell (WBC) counts: comparable
[5]; 5 hrs post-reperfusion, compared to vehicle
  ratio of IL-6/IL-10 mRNA expression: drops more drastically
[5]; 24 hrs post-reperfusion
  ratio of IL-6/IL-10 mRNA expression: has dropped
